Laboratory results from PMC4823704, “Trastuzumab-grafted PAMAM dendrimers for the selective delivery of anticancer drugs to HER2-positive breast cancer” (Scientific Reports, 2016).

Assays:
[1] = test system: MDA-MB-453 cells (HER2-positive); test: Anti-proliferation assay (MTT); type: cell-based; settings: Homo sapiens
Procedure: (§1) Cells were grown in DMEM medium supplemented with 10% fetal bovine serum, 100 U/mL penicillin, […] streptomycin and 2 mM/L L-glutamine. Cells were maintained at 37 °C in 5% CO2.
(§2) Cells were seeded in 96-well plates at a density of 5 × 10^3 cells per well in 100 μL of medium. […] Media were then replaced with serum-free DMEM containing MTT (0.5 mg/mL), then cells were incubated for 4 h. Media were removed and 150 μL of DMSO was added to dissolve formazan crystals. Absorbance was measured at 570 nm using a microplate reader. Untreated cells were used as a negative control (100% viability). IC50 was calculated by fitting the curve of cell viability against the drug concentration.

[2] = test system: MDA-MB-231 cells (HER2-negative); test: Anti-proliferation assay (MTT); type: cell-based, human
Procedure: as §1, §2

MDA-MB-453 cells = test: Annexin V-FITC/PI apoptosis assay; type: cell-based, human; settings: 56 ng/mL, 24 h
Procedure: To evaluate apoptosis and necrosis, we used Annexin V-FITC/PI assays, as per the manufacturer’s protocols. Briefly, MDA-MB-453 cells (1 × 10^6 cells/well) were seeded in six-well plates and maintained at 37 °C in 5% CO2 and a 95% humidified atmosphere. The medium was replaced with freshly prepared medium containing drug-loaded formulations. Untreated cells were used as controls. After 24 h, cells were washed twice with PBS and resuspended in 500 μL of binding buffer. We added 5 μL of FITC-conjugated Annexin V and 10 μL of PI, and incubated cells for 15 min at room temperature in the dark. Cells were then analyzed by a Muse™ Cell Analyzer (Merck-Millipore, Germany) and the extent of apoptosis and necrosis was determined.

[3] = patients, p = 0.03; cited from earlier work

IC50 ([1]; MDA-MB-453, 48 h of incubation): > 0.25 µg/mL
IC50 ([2]; Homo sapiens, MDA-MB-231, 48 h of incubation): > 0.25 µg/mL
SMILES: CC(=O)O[C@@]12CO[C@@H]1C[C@H](O)[C@@]1(C)C(=O)[C@H](O)C3=C(C)[C@@H](OC(=O)[C@H](O)[C@@H](NC(=O)OC(C)(C)C)c4ccccc4)C[C@@](O)([C@@H](OC(=O)c4ccccc4)[C@H]21)C3(C)C [DTX, docetaxel]
viability at 0.125 µg/mL ([1]; 125 ng/mL drug concentration, 48 h, MDA-MB-453, read-out: cell viability): 69%
cell viability ([2]; 48 h, MDA-MB-231): 61.9%
live cells (MDA-MB-453 cells): 83.1%
total percentage of apoptotic cells (MDA-MB-453 cells): 16.5%
survival [3]: 22.7 months
